Here are results for three molecules from article doi:10.1101/2024.12.15.628575v1 (biorxiv, 2024).

pIC50: −log10 of the molar value. Where two headings read alike, the source gives them in different places.

Experiment [1] concerns the target T1, human CPT1a (Homo sapiens, UniProt P50416).
T1 sequence (P50416 2-773): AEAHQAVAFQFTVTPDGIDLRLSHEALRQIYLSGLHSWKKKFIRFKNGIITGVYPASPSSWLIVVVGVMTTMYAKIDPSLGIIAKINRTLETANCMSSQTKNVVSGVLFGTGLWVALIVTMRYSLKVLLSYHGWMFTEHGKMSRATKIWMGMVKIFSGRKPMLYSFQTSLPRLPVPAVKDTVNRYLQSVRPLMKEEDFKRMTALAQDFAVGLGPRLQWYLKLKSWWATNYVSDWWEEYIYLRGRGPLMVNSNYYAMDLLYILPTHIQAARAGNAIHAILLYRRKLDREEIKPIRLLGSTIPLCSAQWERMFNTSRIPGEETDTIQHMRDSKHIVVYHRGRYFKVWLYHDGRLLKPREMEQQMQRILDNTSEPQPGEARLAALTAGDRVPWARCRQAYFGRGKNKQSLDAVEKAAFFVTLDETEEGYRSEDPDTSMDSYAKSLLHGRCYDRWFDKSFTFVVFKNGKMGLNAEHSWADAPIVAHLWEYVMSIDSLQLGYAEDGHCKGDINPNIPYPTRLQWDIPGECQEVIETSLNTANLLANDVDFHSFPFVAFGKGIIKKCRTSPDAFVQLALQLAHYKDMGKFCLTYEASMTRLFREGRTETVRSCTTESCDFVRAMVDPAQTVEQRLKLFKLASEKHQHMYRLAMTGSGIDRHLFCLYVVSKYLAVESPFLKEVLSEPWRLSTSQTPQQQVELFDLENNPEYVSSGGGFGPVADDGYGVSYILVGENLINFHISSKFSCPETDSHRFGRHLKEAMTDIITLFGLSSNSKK
Description: DTNB colorimetric CoA release assay, […] nm, transfected Expi293 pellet extract. The class given is biochemical.

Experiment [2] has as its target T1, human CPT1a. The description is as above. The format is cell-based.

Usually pIC50 stands for the negative decadic logarithm of the IC50, by convention in mol/L.

As for `CN(C)CCCN1c2ccccc2Sc2ccc(Cl)cc21` [chlorpromazine], the negative-log IC50 (pIC50) in experiment [1] is 3.75. Regarding `C1CCC(C(CC2CCCCN2)C2CCCCC2)CC1` (stereo not drawn) [perhexiline], the pIC50 in experiment [2] was 3.50. As to `O=C(O)[C@@]1(CCCCCCOc2ccc(Cl)cc2)CO1` [etomoxir], the pIC50 in experiment [1] is 2.33.
